According to patent publication US20230293407A1, “Compositions Comprising (Bio)-Alkanediols with Antimicrobials for Product Protection” (Symrise AG, priority 2020, published 2023):
Values joined by “and” are separate entries in the source; they are usually repeats but may differ in a detail not shown here. Identical values can stand only once. Like-named read-outs stand apart in the source and are kept apart here.

Columns and labels:
Test in all cases: preservation efficacy test (PET), European Pharmacopoeia 5.1.3
Assay type in all cases: cell-based
[1] = tested on: Staphylococcus aureus; conditions: for count at 7 days / count at 14 days / count at 28 days / count at 2 days: SA, use concentration in label; for count at 14 days / SA germ count, 14 days: 14 days after inoculation; for count at 28 days / SA germ count, 28 days: 28 days after inoculation
[2] = tested on: Pseudomonas aeruginosa; conditions: for count at 2 days / count at 7 days / count at 14 days / count at 28 days: PA, use concentration in label; for count at 2 days / PA germ count, 2 days: 2 days after inoculation; for count at 7 days / PA germ count, 7 days: 7 days after inoculation; for count at 14 days / PA germ count, 14 days: 14 days after inoculation
[3] = tested on: Escherichia coli; conditions: for count at 7 days / count at 14 days / count at 28 days / count at 2 days: EC, use concentration in label; for count at 7 days / EC germ count, 7 days: 7 days after inoculation; for count at 14 days / EC germ count, 14 days: 14 days after inoculation; for count at 28 days / EC germ count, 28 days: 28 days after inoculation; for count at 2 days / EC germ count, 2 days: 2 days after inoculation; for EC germ count, 2 days / EC germ count, 7 days / EC germ count, 14 days / EC germ count, 28 days: substance at given % in test formulation
[4] = tested on: Candida albicans; conditions: for count at 14 days / CA germ count, 14 days: 14 days after inoculation; for count at 28 days / CA germ count, 28 days: 28 days after inoculation; for CA germ count, 28 days / CA germ count, 2 days / CA germ count, 7 days / CA germ count, 14 days: substance at given % in test formulation; for CA germ count, 2 days: 2 days after inoculation
[5] = tested on: Aspergillus brasiliensis
[6] = 2 days after inoculation, substance at given % in test formulation
[7] = 7 days after inoculation, substance at given % in test formulation
[8] = substance at given % in test formulation
[9] = 28 days after inoculation, substance at given % in test formulation

Row | SMILES | count at 7 days ([1]; 7 days after inoculation) | count at 14 days [1] | count at 28 days [1] | count at 2 days [2] | count at 7 days [2] | count at 14 days [2] | count at 28 days ([2]; 28 days after inoculation) | count at 7 days [3] | count at 14 days [3] | count at 28 days [3] | count at 14 days ([4]; CA, use concentration in label) | count at 28 days ([4]; CA, use concentration in label) | SA germ count, 7 days [1, 7] | SA germ count, 14 days [1, 8] | SA germ count, 28 days [1, 8] | PA germ count, 14 days [2, 8] | EC germ count, 2 days [3] | EC germ count, 7 days [3] | EC germ count, 14 days [3] | EC germ count, 28 days [3] | further results
1 | CCCCC(O)C(C)O (stereo not shown) [0.4% 2,3 Heptandiol] | 1 | 1 | 1 | 1 | 1 | 1 | 1 | 1 | 1 | 1 | 39.000 | 76.000 |  |  |  |  |  |  |  |  | 
2 | Cc1cc(O)ccc1C(C)C [0.1% o-Cymen-5-ol] | 18.000 | 1 | 1 |  | 250.000 | 900.000 | 460.000 | 270.000 | 270.000 | 51.000 |  | 690.000 |  |  |  |  |  |  |  |  | 
3 | CCCCCC(O)CO (stereo not shown) [0.3% 1.2-heptanediol] | 1 | 1 | 1 | 1 | 1 | 1 | 1 | 2.400 | 1 | 1 | 260.000 | 150.000 |  |  |  |  |  |  |  |  | count at 2 days ([1]; 2 days after inoculation): 16.000; count at 2 days [3]: 130.000
4 | CC(CO)CCCC1CCCCC1 (stereo not shown) [1.0% 2-Methyl 5-Cyclohexylpentanol] |  |  |  |  |  |  |  |  |  |  |  |  | 760 | 1 | 1 | 780.000 | 960.000 | 490.000 | 310.000 | 380.000 | SA germ count, 2 days [1, 6]: 110.000; PA germ count, 2 days [2, 8]: 670.000; PA germ count, 7 days [2, 8]: 570.000; CA germ count, 28 days [4]: 630.000
5 | CCCCCC(O)CO (stereo not shown) [0.4 % 1,2-heptanediol] | 1 | 1 | 1 | 1 | 1 | 1 | 1 | 1 | 1 | 1 | 590 | 27 |  |  |  |  |  |  |  |  | count at 2 days ([1]; 2 days after inoculation): 1; count at 2 days [3]: 140; count at 7 days ([4]; CA, 7 days after inoculation, use concentration in label): 39.000
6 | CCCCCCCC(=O)OCC(O)CO (stereo not shown) [0.1% glyceryl caprylate] |  |  |  |  |  |  |  |  |  |  |  |  | 1 | 1 | 1 | 2.400 | 1 | 1 | 1 | 1 | SA germ count, 2 days [1, 6]: 15.000; PA germ count, 2 days [2, 8]: 1.800; PA germ count, 7 days [2, 8]: 690; PA germ count, 28 days [2, 9]: 39.000; CA germ count, 2 days [4]: 990.000; CA germ count, 7 days ([4]; 7 days after inoculation): 690.000; CA germ count, 14 days [4]: 280.000; CA germ count, 28 days [4]: 220.000
7 | O=C([O-])c1ccccc1.[Na+] [0.1% Sodium Benzoate] |  |  |  |  |  |  |  |  |  |  |  |  |  |  |  |  |  |  |  |  | SA germ count, 2 days [1]: 14.000 and 10; SA germ count, 7 days [1]: 9.800 and 10; PA germ count, 28 days [2]: 18.000 and 10; AB germ count, 14 days [5]: 20.000; AB germ count, 28 days [5]: 4.800
8 | CCCCCCC(O)CO (stereo not shown) [0.2% 1,2-octanediol] |  |  |  |  |  |  |  |  |  |  |  |  | 1 | 1 | 1 | 1 | 1 | 1 | 1 | 1 | SA germ count, 2 days [1, 6]: 1; PA germ count, 2 days [2, 8]: 1; PA germ count, 7 days [2, 8]: 1; PA germ count, 28 days [2, 9]: 1; CA germ count, 2 days [4]: 950.000; CA germ count, 7 days ([4]; 7 days after inoculation): 15.000; CA germ count, 14 days [4]: 36; CA germ count, 28 days [4]: 1
9 | CCCCCC(O)C(C)O (stereo not shown) [0.1% 2,3-Octanediol] |  |  |  |  |  |  |  |  |  |  |  |  | 9.500 | 1 | 1 | 1 | 690.000 | 11.000 | 1.200 | 1 | PA germ count, 28 days [2, 9]: 1
